Measured values published in patent US8551456B2, “Combination therapy and methods for treating bacterial biofilms” (priority 2010, dated 2013).
Entries after “also recorded” stand apart in the source; their conditions may differ.

Tests used:
[1] = test system: P. aeruginosa wild-type PAO1 biofilms; assay: Combined TMP and antibiotic treatment of biofilms in the dark, CSLM LIVE/DEAD; format: cell-based, Pseudomonas aeruginosa; conditions: for gain in killing by the addition of TMP to the antibiotic / red (dead) staining with antibiotic + TMP versus antibiotic alone (FIGS. 5A and 5B) / Effect on P. aeruginosa biofilm cells, TMP + Antibiotic, pH 7: TMP 225 μM 10 min then antibiotic 100 μg ml^−1 2 h
Method: Biofilms were grown on glass slides as described above. […] Slides were incubated in tobramycin for 2 h at 37° C. All incubations were performed in the dark. Cell viability within biofilms was assessed using the LIVE/DEAD BacLight bacterial viability kit and visualized with an Olympus FV1000 CSLM as described above.
Bacterial viability was determined using the LIVE/DEAD BacLight Bacterial Viability assay. The images show horizontal optical sections from the midpoint of the biofilms flanked by vertical optical sections in biofilms treated with panel A showing tobramycin alone and panel B showing TMP+tobramycin.
Using the same protocol used in Example 3 for tobramycin, additional antibiotics were tested to aid in the elucidation of the mechanism of bacterial biofilm disruption in the absence of photoactivation.
Bacterial viability was determined using the LIVE/DEAD BacLight Bacterial Viability assay. Cells staining red are considered dead while cells staining green are alive. […] In summary, panels C, E, G, I, K and M received the respective antibiotic alone, and panels B, D, F, H, J, L and N were treated with the combination of TMP and antibiotic.

pUCP18 plasmid DNA = assay: TMP induced degradation of plasmid DNA, agarose gel electrophoresis; format: biochemical; conditions: 100 or 225 μM TMP
Method: Plasmid DNA with and without TMP was irradiated for designated times. Prior to light exposure, samples of DNA supplemented with TMP were collected and incubated in the dark for comparison. DNA was examined using agarose gel electrophoresis.
The untreated control samples had the three expected forms of plasmid DNA: covalently closed circles, relaxed circular, and linear cut (FIG. 3: lanes 1 and 7). Plasmid DNA exposed to light only appeared similar to the control (FIG. 3: lanes 2 and 8).

[2] = test system: extracellular DNA in P. aeruginosa wild-type biofilms; assay: Quantification of extracellular biofilm DNA with DNA stains such as Pico Green; format: cell-based, Pseudomonas aeruginosa; conditions: data not shown, possible competition of TMP with Pico Green
[3] = test system: wild-type PAO1 isolates grown in biofilms; conditions: cited from earlier work
S. aureus = conditions: cited from earlier work
[4] = test system: P. aeruginosa pqsA mutant biofilms; format: cell-based, Pseudomonas aeruginosa
Method: (§1) P. aeruginosa PAO1 wild-type and isogenic pqsA mutant strain were obtained from Eb Pesci (East Carolina University School of Medicine). P. aeruginosa strains were grown aerobically with shaking in Minimal Salts medium (40 mM K2HPO4, 20 mM KH2PO4, 7.6 mM [NH4]2SO4, 0.2 mM MgSO4.7H2O, 9.2×10^−3 mMFeCl3.6H2O, 0.2% [wt/vol] glucose; adjusted pH 7.0) at 37° C. (4, 17). For static biofilms, P. aeruginosa strains were grown overnight in Minimal Salts medium at 37° C. with shaking. The following day, bacteria were diluted in fresh media to an OD590nm of 0.15. Five hundred microliters of the standardized culture was added to sterile polystyrene cuvettes and incubated statically for 24 h at 37° C. For examination of static biofilms using confocal laser scanning microscopy (CSLM), sterile microscope slides were submerged in standardized cell suspensions and incubated statically at 37° C. for 24 h.
(§2) Samples were irradiated for various exposure times at an intensity of 192 Joules/cm^2.
Negative control slides were transferred to 50 ml tubes containing only PBS. […] Bacterial viability was assessed in biofilm cultures using the LIVE/DEAD BacLight bacterial viability assay (Molecular Probes Inc., Eugene, Oreg.), containing SYTO9 and propidium iodide dyes. […]
Bacterial viability was determined using the LIVE/DEAD BacLight Bacterial Viability assay.

[5] = test system: P. aeruginosa PAO1 planktonic cell populations; conditions: TMP 2.5 mg ml^−1; cited from earlier work
[6] = test system: P. aeruginosa PAO1 wild-type biofilms; assay: CSLM of static biofilms with LIVE/DEAD BacLight viability assay; format: cell-based, Pseudomonas aeruginosa
Method: as §1, §2
Negative control slides were transferred to 50 ml tubes containing only PBS. […] Bacterial viability was assessed in biofilm cultures using the LIVE/DEAD BacLight bacterial viability assay (Molecular Probes Inc., Eugene, Oreg.), containing SYTO9 and propidium iodide dyes. Biofilms were visualized with an Olympus FV1000 CSLM (Olympus America, Center Valley, Pa.) using a 60× oil immersion objective. Biofilm images were acquired in 0.4 μm optical sections for the entire thickness of the biofilm.
Bacterial viability was determined using the LIVE/DEAD BacLight Bacterial Viability assay. The cells in panels C-F show significant staining in red (considered dead) while cells in panels A, B, G and H show predominate staining in green (alive). […] The few remaining attached cells were nonviable.

[7] = test system: P. aeruginosa pqsA mutant biofilms; assay: Viable plate counts of cells from static biofilms after TMP and irradiation; format: cell-based, Pseudomonas aeruginosa; conditions: 225 μM TMP, irradiated 10 min
Method: as §1, §2
(§3) Static biofilms formed in sterile polystyrene cuvettes, as described above, were used to quantify cell survival. […] Cells released from the biofilm following treatment were collected from the supernatant by centrifugation and resuspended in PBS. The remaining attached biofilm was washed once and resuspended in PBS. The number of viable cells in the supernatant and attached biofilms following treatment were determined by plating on LB (1.5% agar) plates that were incubated for 24 h at 37° C.
(§4) Cells were collected from the supernatant of treated biofilms, as well as from the remaining attached biofilm. Cell suspensions were diluted and plated onto LB (1.5% agar) plates and incubated 24 h at 37° C. CFU were used to determine the surviving fraction. […] The recovered supernatants contained the cells sloughed off as the result of TPM exposure and irradiation.

[8] = test system: P. aeruginosa PAO1 wild-type biofilms; assay: as above; format: cell-based, Pseudomonas aeruginosa; conditions: wild-type PAO1, 225 μM TMP, 10 min of irradiation
Method: as §1, §2, §3, §4

O=C(O)c1cn(C2CC2)c2cc(N3CCNCC3)c(F)cc2c1=O [Ciprofloxacin]
gain in killing by the addition of TMP to the antibiotic ([1]; dark): no gain in killing | red (dead) staining with antibiotic + TMP versus antibiotic alone (FIGS. 5A and 5B) ([1]; dark): little or no increase in red staining | Effect on P. aeruginosa biofilm cells, TMP + Antibiotic, pH 7 ([1]; dark): +

NC[C@H]1O[C@H](O[C@H]2[C@H](O)[C@@H](O[C@H]3O[C@H](CO)[C@@H](O)[C@H](N)[C@H]3O)[C@H](N)C[C@@H]2N)[C@H](O)[C@@H](O)[C@@H]1O [kanamycin]
Effect on P. aeruginosa biofilm cells, TMP + Antibiotic, pH 7 ([1]; dark): +

gentamicin
gain in killing by the addition of TMP to the antibiotic ([1]; dark): behaved similarly to tobramycin | red (dead) staining with antibiotic + TMP versus antibiotic alone (FIGS. 5A and 5B) ([1]; dark): significant increased red staining

NC[C@H]1O[C@H](O[C@H]2[C@H](O)[C@@H](O[C@H]3O[C@H](CO)[C@@H](O)[C@H](N)[C@H]3O)[C@H](N)C[C@@H]2N)[C@H](N)C[C@@H]1O [tobramycin]
cell viability and biofilm clearance, TMP then antibiotic ([1]; TMP 225 μM 10 min then tobramycin 100 μg ml^−1 2 h, dark): predominate amount of cells staining red (dead); also recorded: substantial clearance of the biofilms and greater loss of cell viability throughout the biofilms than with either single treatment; also recorded: significant biofilm clearance and enhanced killing of cells | effect of pH on the combination of tobramycin and TMP ([1]; dark conditions, pH range of 4.0 to 8.0): enhancement of killing | cell viability and biofilm clearance, antibiotic alone ([1]; tobramycin alone 100 μg ml^−1, 2 h, dark, no TMP): cells predominately staining green (alive); also recorded: reduction in cell viability which was limited to cells near the surface of the biofilms; also recorded: did not result in substantial biofilm clearance and led to minimal killing of biofilm associated cells

CC1(C)S[C@@H]2[C@H](NC(=O)C(C(=O)O)c3ccccc3)C(=O)N2[C@H]1C(=O)O (stereo partly drawn) [carbenicillin]
gain in killing by the addition of TMP to the antibiotic ([1]; dark): no enhanced killing | red (dead) staining with antibiotic + TMP versus antibiotic alone (FIGS. 5A and 5B) ([1]; dark): little or no increase in red staining | Effect on P. aeruginosa biofilm cells, TMP + Antibiotic, pH 7 ([1]; dark): −

CN[C@H](CC(C)C)C(=O)N[C@H]1C(=O)N[C@@H](CC(N)=O)C(=O)N[C@H]2C(=O)N[C@H]3C(=O)N[C@H](C(=O)N[C@H](C(=O)O)c4cc(O)cc(O)c4-c4cc3ccc4O)[C@H](O)c3ccc(c(Cl)c3)Oc3cc2cc(c3O[C@@H]2O[C@H](CO)[C@@H](O)[C@H](O)[C@H]2O[C@H]2C[C@](C)(N)[C@H](O)[C@H](C)O2)Oc2ccc(cc2Cl)[C@H]1O [vancomycin]
gain in killing by the addition of TMP to the antibiotic ([1]; dark): substantially enhanced killing | red (dead) staining with antibiotic + TMP versus antibiotic alone (FIGS. 5A and 5B) ([1]; dark): predominately red staining

C[n+]1ccc(-c2c3nc(c(-c4cc[n+](C)cc4)c4ccc([nH]4)c(-c4cc[n+](C)cc4)c4nc(c(-c5cc[n+](C)cc5)c5ccc2[nH]5)C=C4)C=C3)cc1.Cc1ccc(S(=O)(=O)[O-])cc1.Cc1ccc(S(=O)(=O)[O-])cc1.Cc1ccc(S(=O)(=O)[O-])cc1.Cc1ccc(S(=O)(=O)[O-])cc1 [TMP, 5,10,15,20-tetrakis(1-methyl-pyridino)-21H,23H-porphine, tetra-p-tosylate salt]
degradation of plasmid DNA (pUCP18 plasmid DNA; irradiation for 5 or 30 min): complete degradation | migration of plasmid DNA in gel without photoactivation (pUCP18 plasmid DNA; nonirradiated): retarded migration of DNA; also recorded: migration was retarded | biofilm DNA after TMP and light ([2]; TMP and light): decrease was observed in biofilm DNA | biofilm DNA after TMP in the absence of light ([2]; TMP, no light): decrease in biofilm DNA | reduction of wild-type PAO1 isolates grown in biofilms ([3]; TMP 5.0 mg ml^−1, irradiated for 5 min): 1.2 log10 | TMP concentration necessary to achieve the same level of killing in bacteria enmeshed within biofilms ([3]; same level of killing as planktonic (>10^2 cfu ml^−1)): 5.0 mg/mL | S. aureus survival (S. aureus; TMP alone): reduce S. aureus survival | effect on established S. aureus biofilms (S. aureus; TMP combined with vancomycin): disrupt established biofilms | cell viability and biofilm architecture without photoactivation ([4]; 225 μM TMP, dark): did not affect cell viability or disrupt the architecture | cell viability of attached cells (CSLM, LIVE/DEAD) ([4]; 100 or 225 μM TMP, irradiated 10 min): decrease in cell viability of attached cells; also recorded: high levels of killing | reduction of planktonic cell populations [5]: > 10^2 cfu ml^−1 | biofilm density and cell viability (CSLM, LIVE/DEAD) ([6]; wild-type PAO1, 100 μM TMP, irradiated 10 min): decrease in biofilm density and the majority of cells within the biofilm were non-viable | biofilm disruption and clearance (CSLM, LIVE/DEAD) ([6]; wild-type PAO1, 225 μM TMP, 10 min of irradiation): nearly complete disruption and clearance; also recorded: completely disrupted with few cells remaining attached | biofilm structure and cell viability without photoactivation (dark toxicity) ([6]; wild-type PAO1, 225 μM TMP, dark): expanded in volume without a loss of cell viability; also recorded: no dark toxicity; also recorded: did not lead to clearance of wild-type biofilms | decrease in cell viability of attached cells ([7]; attached cells): 3.9 log10 | reduction in cell viability of cells collected from supernatants ([7]; supernatant cells): 4.2 log10 | decrease in viable cells in the attached biofilm population ([8]; attached cells): 4.1 log10 | reduction in the number of viable cells in the recovered supernatants ([8]; supernatant cells): 4.5 log10 | toxicity to human fibroblasts (human fibroblasts): does not appear to be toxic to human fibroblasts
